Laboratory results taken from US9447106B2, “Substituted pyrazolo[1,5-a]pyrimidines as bruton's tyrosine kinase modulators” (Beigene, Ltd., priority 2013, dated 2016).
Counter-ions that a name gives are not always drawn.

Target: phosphorylated Btk at Tyr223 in Ramos cells (Homo sapiens (Human), UniProt Q06187)
Experiment: Btk pY223 cellular assay (HTRF) in Ramos cells
Format: cell-based
Details: 1 hour compound incubation, pervanadate or Na3VO4 stimulation
Description: Btk pY223 cellular assay is a HTRF based assay intended to determine the endogenous levels of phosphorylated Btk at Tyr223.
Briefly, Ramos cells were serum starved in 0.5% FBS-containing RPMI1640 for 2 hours. Following starvation, the cells were incubated with compounds to be detected at various concentrations in a CO2 incubator for 1 hour. After incubation, cells were stimulated with 1 mM pervanadate (PV) or Na3VO4 (OV) for 20 min. Then, the cells were spinned down and lysed with 1× lysis buffer at RT for 10 min (4× lysis buffer supplied in the kit). During the incubation, 1× antibody mix was prepared by diluting anti-Btk-d2 and anti-pBtk-K in detection buffer (supplied in the kit). […] After that, 18 ul of cell lysate was transferred to the assay plate pre-loaded with antibody solution. After mixing gently and spinning briefly, the plate was sealed up and kept in dark at RT for 18 hours. […] IC50 values were calculated with GraphPad Prism software using the sigmoidal dose-response function.

Sequence of phosphorylated Btk at Tyr223 in Ramos cells (Q06187 whole entry): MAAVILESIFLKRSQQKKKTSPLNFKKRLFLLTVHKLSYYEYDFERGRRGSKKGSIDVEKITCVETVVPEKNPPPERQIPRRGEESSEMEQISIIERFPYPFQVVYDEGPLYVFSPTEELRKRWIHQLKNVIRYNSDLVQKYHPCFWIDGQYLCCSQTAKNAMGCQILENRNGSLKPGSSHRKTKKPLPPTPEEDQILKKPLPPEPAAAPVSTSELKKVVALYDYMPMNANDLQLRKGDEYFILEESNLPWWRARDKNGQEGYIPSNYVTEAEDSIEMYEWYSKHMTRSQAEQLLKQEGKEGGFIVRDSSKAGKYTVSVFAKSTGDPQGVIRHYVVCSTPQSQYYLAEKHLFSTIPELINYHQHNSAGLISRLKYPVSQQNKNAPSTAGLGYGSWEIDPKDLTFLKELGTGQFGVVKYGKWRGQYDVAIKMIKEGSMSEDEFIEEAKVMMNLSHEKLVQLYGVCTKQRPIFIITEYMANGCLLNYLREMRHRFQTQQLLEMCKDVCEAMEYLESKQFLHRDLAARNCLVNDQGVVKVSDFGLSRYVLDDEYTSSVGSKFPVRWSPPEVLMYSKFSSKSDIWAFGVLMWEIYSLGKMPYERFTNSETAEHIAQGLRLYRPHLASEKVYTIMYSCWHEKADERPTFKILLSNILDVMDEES

SMILES | IC50 [nM]
C=CC(=O)N1CC(C2CCNc3c(C(N)=O)c(-c4ccc(Oc5ccc(Cl)c(Cl)c5)cc4)nn32)C1 (centres unmarked) [Compound 132, 7-(1-acryloylazetidin-3-yl)-2-(4-(3,4-dichlorophenoxy)phenyl)-4,5,6,7-tetrahydropyrazolo[1,5-a]pyrimidine-3-carboxamide] | 6.2
CN(C)C/C=C/C(=O)N1CCCc2[nH]c3c(C(N)=O)c(-c4ccc(Oc5ccccc5)cc4)nn3c2C1 [Compound 124, (E)-8-(4-(dimethylamino)but-2-enoyl)-2-(4-phenoxyphenyl)-4,5,6,7,8,9-hexahydropyrazolo-[5′,1′:2,3]-imidazo[4,5-c]azepine-3-carboxamide] | 4.6
CCC#CC(=O)N1CCC([C@@H]2CCNc3c(C(N)=O)c(-c4ccc(Oc5ccccc5)cc4)nn32)CC1 [Compound 186, (S)-7-(1-(Pent-2-ynoyl)piperidin-4-yl)-2-(4-phenoxyphenyl)-4,5,6,7-tetrahydropyrazolo-[1,5-a]pyrimidine-3-carboxamide] | 10.3
C=CC(=O)Nc1ccc2c(c1)c(=O)[nH]c1c(C(N)=O)c(-c3ccc(Oc4ccccc4)cc3)nn12 [Compound 78, 7-Acrylamido-5-oxo-2-(4-phenoxyphenyl)-4,5-dihydropyrazolo[1,5-a]quinazoline-3-carboxamide] | 140
C=CC(=O)Nc1ccccc1C1CCNc2c(C(N)=O)c(-c3ccc(OCc4ccccn4)c(Cl)c3)nn21 (centres unmarked) [Compound 146, 7-(2-Acrylamido-phenyl)-2-(3-chloro-4-(pyridin-2-ylmethoxy)phenyl)-4,5,6,7-tetrahydropyrazolo[1,5-a]pyrimidine-3-carboxamide] | 4
C=CC(=O)Nc1ccc2c(c1)-n1nc(-c3ccc(Oc4ccccc4)cc3)c(C(N)=O)c1NC2 [Compound 69, 8-Acrylamido-2-(4-phenoxyphenyl)-4,5-dihydropyrazolo[1,5-a]quinazoline-3-carboxamide] | 34.4
C=CC(=O)Nc1ccccc1C1CCNc2c(C(N)=O)c(-c3ccc(F)c(C)c3)nn21 (centres unmarked) [Compound 157, 7-(2-Acrylamidophenyl)-2-(4-fluoro-3-methylphenyl)-4,5,6,7-tetrahydropyrazolo[1,5-a]pyrimidine-3-carboxamide] | 20
CN(C)CC#CC(=O)N1CCC([C@@H]2CCNc3c(C(N)=O)c(-c4ccc(Oc5ccccc5)cc4)nn32)CC1 [Compound 188, (S)-7-(1-(4-(Dimethylamino)but-2-ynoyl)piperidin-4-yl)-2-(4-phenoxyphenyl)-4,5,6,7-tetrahydropyrazolo-[1,5-a]pyrimidine-3-carboxamide] | 8.5
C=CC(=O)NCC1CNc2c(C(N)=O)c(-c3ccc(Oc4ccccc4)cc3)nn2C1 (centres unmarked) [Compound 86, 6-(Acrylamidomethyl)-2-(4-phenoxyphenyl)-4,5,6,7-tetrahydro pyrazolo[1,5-a]pyrimidine-3-carboxamide] | 4.4
C=CC(=O)Nc1ccccc1C1CCNc2c(C(N)=O)c(-c3ccc(C(F)(F)F)c(Cl)c3)nn21 (centres unmarked) [Compound 162, 7-(2-Acrylamidophenyl)-2-(3-chloro-4-(trifluoromethyl)phenyl)-4,5,6,7-tetrahydropyrazolo[1,5-a]pyrimidine-3-carboxamide] | 3.2
NC(=O)c1c(-c2ccc(Oc3ccccc3)cc2)nn2c1NCC[C@H]2C1CCN(C(=O)C#CCN2CCCC2)CC1 [Compound 187, (S)-2-(4-Phenoxyphenyl)-7-(1-(4-(pyrrolidin-1-yl)but-2-ynoyl)piperidin-4-yl)-4,5,6,7-tetrahydropyrazolo-[1,5-a]pyrimidine-3-carboxamide] | 7.3
CN(C)C/C=C/C(=O)Nc1ccccc1C1CCNc2c(C(N)=O)c(-c3ccc(Oc4ccccc4)cc3)nn21 (centres unmarked) [Compound 92, (E)-7-(2-(4-(dimethylamino)but-2-enamido)-phenyl)-2-(4-phenoxyphenyl)-4,5,6,7-tetrahydropyrazolo-[1,5-a]pyrimidine-3-carboxamide] | 7
COc1cc(-c2nn3c(c2C(N)=O)NCCC3c2ccccc2NC(=O)/C=C/CN(C)C)ccc1C (centres unmarked) [Compound 165, (E)-7-(2-(4-(Dimethylamino)but-2-enamido)phenyl)-2-(3-methoxy-4-methylphenyl)-4,5,6,7-tetrahydropyrazolo[1,5-a]pyrimidine-3-carboxamide] | 19.1
C=CC(=O)Nc1ccccc1C1CCNc2c(C(N)=O)c(-c3ccc(F)c(F)c3)nn21 (centres unmarked) [Compound 137, 7-(2-acrylamidophenyl)-2-(3,4-difluorophenyl)-4,5,6,7-tetrahydropyrazolo[1,5-a]pyrimidine-3-carboxamide] | 22.7
C=CC(=O)N1CCC2(CCNc3c(C(N)=O)c(-c4ccc(Oc5ccccc5)cc4)nn32)CC1 [Compound 43, 1-Acryloyl-2′-(4-phenoxyphenyl)-5′,6′-dihydro-4′H-spiro[piperidine-4,7′-pyrazolo[1,5-a]pyrimidine]-3′-carboxamide] | 75.8
C=CC(=O)NC1CNc2c(C(N)=O)c(-c3ccc(Oc4ccccc4)cc3)nn2C1 (centres unmarked) [Compound 85, 6-Acrylamido-2-(4-phenoxyphenyl)-4,5,6,7-tetrahydropyrazolo[1,5-a]pyrimidine-3-carboxamide] | 73.2

SMILES | IC50 [nM]
C=CC(=O)N1CC(C2CCNc3c(C(N)=O)c(-c4ccc(OCc5ccccc5)cc4)nn32)C1 (centres unmarked) [Compound 104, 7-(1-acryloylazetidin-3-yl)-2-(4-(benzyloxy)phenyl)-4,5,6,7-tetrahydropyrazolo-[1,5-a]pyrimidine-3-carboxamide] | 20.6
CN(C)C/C=C/C(=O)N1CCc2c([nH]c3c(C(N)=O)c(-c4ccc(Oc5ccccc5)cc4)nn23)C1 [Compound 64, (E)-6-(4-(Dimethylamino)but-2-enoyl)-2-(4-phenoxyphenyl)-5,6,7,8-tetrahydro-4H-pyrazolo[1′,5′:1,2]imidazo[4,5-c]pyridine-3-carboxamide trifluoroacetate] | 4.8
C=CC(=O)Nc1ccccc1C1CCNc2c(C(N)=O)c(-c3ccc(Oc4ccc(F)cc4)cc3)nn21 (centres unmarked) [Compound 12, 7-(2-Acrylamidophenyl)-2-(4-(4-fluorophenoxyl)phenyl)-4,5,6,7-tetrahydropyrazolo[1,5-a]pyrimidine-3-carboxamide] | 23.6
C=CC(=O)Nc1ccccc1C1CCNc2c(C(N)=O)c(-c3cc(Cl)c(OC)c(Cl)c3)nn21 (centres unmarked) [Compound 169, 7-(2-Acrylamido-phenyl)-2-(3,5-dichloro-4-methoxyphenyl)-4,5,6,7-tetrahydropyrazolo-[1,5-a]pyrimidine-3-carboxamide] | 7
NC(=O)c1c(-c2ccc(F)c(Cl)c2)nn2c1NCCC2c1ccccc1NC(=O)/C=C/CN1CCCCC1 (centres unmarked) [Compound 153, (E)-2-(3-Chloro-4-fluorophenyl)-7-(2-(4-(piperidin-1-yl)but-2-enamido)phenyl)-4,5,6,7-tetrahydropyrazolo-[1,5-a]pyrimidine-3-carboxamide] | 165
C=CC(=O)N1CC(C2CCNc3c(C(N)=O)c(-c4ccc(Oc5cccc(Cl)c5)cc4)nn32)C1 (centres unmarked) [Compound 107, 7-(1-acryloylazetidin-3-yl)-2-(4-(3-chlorophenoxy)phenyl)-4,5,6,7-tetrahydropyrazolo[1,5-a]pyrimidine-3-carboxamide] | 11.2
C=CC(=O)Nc1ccccc1C1CCNc2c(C(N)=O)c(-c3ccc(F)c(Br)c3)nn21 (centres unmarked) [Compound 152, 7-(2-Acrylamidophenyl)-2-(3-bromo-4-fluorophenyl)-4,5,6,7-tetrahydropyrazolo[1,5-a]pyrimidine-3-carboxamide] | 1.8
C=CC(=O)N1CC(C2CCNc3c(C(N)=O)c(-c4ccc(Oc5ccccc5)c(Cl)c4)nn32)C1 (centres unmarked) [Compound 139, 7-(1-acryloylazetidin-3-yl)-2-(3-chloro-4-phenoxyphenyl)-4,5,6,7-tetrahydropyrazolo[1,5-a]pyrimidine-3-carboxamide] | 3.1
C=CC(=O)N1CC(C2(C)CCNc3c(C(N)=O)c(-c4ccc(Oc5ccccc5)cc4)nn32)C1 (centres unmarked) [Compound 175, 7-(1-Acryloylazetidin-3-yl)-7-methyl-2-(4-phenoxyphenyl)-4,5,6,7-tetrahydropyrazolo-[1,5-a]pyrimidine-3-carboxamide] | 17.6
CC=CC(=O)N1CCc2[nH]c3c(C(N)=O)c(-c4ccc(Oc5ccccc5)cc4)nn3c2C1 [Compound 58, 7-(But-2-enoyl)-2-(4-phenoxyphenyl)-5,6,7,8-tetrahydro-4H-pyrazolo[5′,1′:2,3]imidazo[4,5-c]pyridine-3-carboxamide] | 4.6
CN(C)CCC(=O)N1CCc2[nH]c3c(C(N)=O)c(-c4ccc(Oc5ccccc5)cc4)nn3c2C1 [Compound 57, 7-(3-(Dimethylamino)propanoyl)-2-(4-phenoxyphenyl)-5,6,7,8-tetrahydro-4H-pyrazolo[5′,1′:2,3]imidazo[4,5-c]pyridine-3-carboxamide trifluoroacetate] | 233
CC#CC(=O)N1CC(C2CCNc3c(C(N)=O)c(-c4ccc(Oc5ccccc5)cc4)nn32)C1 (centres unmarked) [Compound 184, 7-(1-(But-2-ynoyl)azetidin-3-yl)-2-(4-phenoxyphenyl)-4,5,6,7-tetrahydropyrazolo-[1,5-a]pyrimidine-3-carboxamide] | 6.7
C=CC(=O)NCC1(C)CCNc2c(C(N)=O)c(-c3ccc(Oc4ccccc4)cc3)nn21 (centres unmarked) [Compound 143, 7-(acrylamidomethyl)-7-methyl-2-(4-phenoxyphenyl)-4,5,6,7-tetrahydropyrazolo[1,5-a]pyrimidine-3-carboxamide] | 4.1
C=CC(=O)Nc1ccccc1C1CCNc2c(C(N)=O)c(-c3ccc(Cl)c(OC)c3)nn21 (centres unmarked) [Compound 160, 7-(2-Acrylamidophenyl)-2-(4-chloro-3-methoxyphenyl)-4,5,6,7-tetrahydropyrazolo[1,5-a]pyrimidine-3-carboxamide] | 1.3
C=CC(=O)N1CCCC1C1CCNc2c(C(N)=O)c(-c3ccc(Oc4ccccc4)cc3)nn21 (centres unmarked) [Compound 103, 7-(1-acryloylpyrrolidin-2-yl)-2-(4-phenoxyphenyl)-4,5,6,7-tetrahydropyrazolo-[1,5-a]pyrimidine-3-carboxamide] | 14
C=CC(=O)N1CC2(CNc3c(C(N)=O)c(-c4ccc(Oc5ccccc5)cc4)nn32)C1 [Compound 46, 1-Acryloyl-6′-(4-phenoxyphenyl)-1′,2′-dihydrospiro[azetidine-3,3′-imidazo[1,2-b]pyrazole]-7′-carboxamide] | 22.6
